Target: T1, renin (Homo sapiens, UniProt P00797)
T1 sequence (P00797 67-406): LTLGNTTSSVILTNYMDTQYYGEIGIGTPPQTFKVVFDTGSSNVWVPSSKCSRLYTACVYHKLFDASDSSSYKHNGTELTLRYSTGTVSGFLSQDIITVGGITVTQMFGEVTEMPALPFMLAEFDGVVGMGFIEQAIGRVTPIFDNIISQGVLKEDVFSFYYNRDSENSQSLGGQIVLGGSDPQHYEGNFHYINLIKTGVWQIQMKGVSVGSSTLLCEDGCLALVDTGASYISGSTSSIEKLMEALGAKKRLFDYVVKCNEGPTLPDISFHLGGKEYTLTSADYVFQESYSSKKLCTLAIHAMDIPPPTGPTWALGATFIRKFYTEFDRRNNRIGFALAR
Experiment: renin inhibitory potency
Format: biochemical
Conditions: compared with the more retained 2R,5R isomer separated by HPLC
Excerpt: The activity of the compounds of the present invention as inhibitors of the angiotensinogen-cleaving activity of renin may be determined by studying (1) their ability to inhibit the angiotensinogen-cleaving activity of renin in vitro and (2) their ability to antagonize the exogenous renin-induced pressor response in vivo.

For `CCCC[C@H](NC(=O)[C@H](Cc1ccccc1)NC(=O)N1CCOCC1)C(=O)N[C@@H](CC1CCCCC1)C(=O)C(F)(F)[C@@H](CC(C)C)C(=O)OCC` [2S,5S product, ethyl (2S,5S)-2-isobutyl-3,3-difluoro-4-keto-5-N-(N-[morpholinocarbonyl-L-phenylalanyl]-L-norleucyl)-amino-6-cyclohexylhexanoate], the renin inhibitory potency was “more active”.

Reference: patent publication EP0297815B1, “Fluorine containing renin inhibitors” (PFIZER INC., priority 1987, dated 1989)
